In patent publication US10513511B2, “Aqueous suspension formulation comprising 4-(4-(4-(((3R,5R)-5-((1H-1,2,4-triazol-1-yl)methyl)-5-(2,4-difluoro-phenyl)tetrahydrofuran-3-yl)methoxy)-3-methylphenyl) or a pharmaceutically acceptable salt thereof” (PULMOCIDE LIMITED, priority 2015, dated 2019):
In brackets after ≈: the same amount, converted by molar mass.

Test system: Aspergillus fumigatus (ATCC 13073)
Experiment: In vivo anti-fungal activity, therapeutic treatment of infected immunocompromised neutropenic mice
Design: species or system A/J mice
Conditions: for CFU in lung, % Inhibition of response / DNA in Lung / DNA in Lung, % Inhibition of response / GM in Serum / GM in serum, % Inhibition of response / CFU in lung: therapeutic; for CFU in lung: mean ± SEM, n = 6
Procedure: Aspergillus fumigatus (ATCC 13073 [strain: NIH 5233], American Type Culture Collection, Manassas, Va., USA) was grown on Malt agar (Nissui Pharmaceutical, Tokyo, Japan) plates for 6-7 days at RT (24±1° C.). Spores were aseptically dislodged from the agar plates and suspended in sterile distilled water with 0.05% Tween 80 and 0.1% agar. On the day of infection, spore counts were assessed by haemocytometer and the inoculum was adjusted to obtain a concentration of 1.67×10^8 spores mL^−1 of physiological saline. […] On day 0, animals were infected with the spore suspension (30 μL intra-nasally).
Test substances were administered intra-nasally (35 μL of a suspension (0.0032-10.0 mg/mL of drug substance in physiological saline) once daily, on days 1, 2 and 3 only (thereby representing a therapeutic treatment regimen). For extended prophylactic treatment, test compounds (35 μL of a suspension of 0.0032 or 0.016 mg/mL in physiological saline) were administered intra-nasally once daily for seven days. One group was dosed 30 min before infection on day 0 but not subsequently, while a second group was further dosed on days 1, 2 and 3 after infection. The effects of these treatment paradigms were compared with those obtained when treatment was restricted in other groups to either one day or 30 min before inoculation and then on days 1, 2 and 3 post infection in both cases. In a final group, dosing was limited still further with animals dosed twice, one day and 30 min before infection only.
Animal body weights were monitored daily and at 6 hr after the last dose of drug was administered on day 3, the animals were anesthetised, the tracheas cannulated and BALF blood and lung tissue were collected. The levels of IL-6 and TNFα in serum were determined using Quantikine® mouse IL-6 or TNF-α ELISA kit (R&D systems, Inc., Minneapolis, Minn., USA) respectively. Aspergillus GM in serum was determination using Platelia GM-EIA kits (Bio-Rad Laboratories, Redmond, Wash., USA). Cut-off index (COI) was calculated by the formula: Cut-off index=OD in sample/OD in cut-off control provided in kit. For tissue fungal load assays, 100 mg of lung tissue was removed aseptically and homogenized in 0.2 mL of 0.1% agar in sterile distilled water. Serially diluted lung homogenates were plated on Malt agar plates (50 μL/plate), and incubated at 24±1° C. for 72 to 96 h. The colonies of A. fumigatus on each plate were counted and the fungal titre presented herein as CFUs per gram of lung tissue.
For determination of Aspergillus fumigatus DNA content, DNA was extracted from either infected lungs or Aspergillus fumigatus with the Isoplant (Nippon Gene) according to the manufacture's instruction. The tissues cut to <3 mm in any length were mixed with solution I (extraction buffer: 300 μL). Solution II (lysis buffer; benzyl chloride: 150 μL) was then added to the mixtures followed by mixing with a vortex mixer for 5 seconds. After incubation at 50° C. for 15 min, solution III (sodium acetate, pH5.2: 150 μL) was added the mixtures agitated vigorously for 1-3 seconds and then incubated on ice for 15 min. After the incubation, the mixtures were centrifuged at 12,000 g for 15 min at 4° C. DNA in the upper aq phases of the supernatants was precipitated with 100% ethanol (×2.5 vol), washed with 70% ethanol and dissolved in 5-10 μL of TE buffer.
DNA amplification was performed with Premix Ex Taq™ (Takara Bio) in the 96-well optical reaction plate. Aspergillus fumigatus 18S rRNA gene fragments were amplified with the primer pair; 5′-GGCCCTTAA ATAGCCCGGT-3′ (SEQ ID No. 1) and 5′-[…]-3′ (SEQ ID No. 2), and hybridization probe; 5′-FAM-AGCCAGCGGCCCGCAAATG-TAMRA-3′ (SEQ ID No. 3). Real time PCR was performed in a (25 μL contained 50 ng of mouse DNA with 200 nM of probe) under the following conditions: initial incubation for 2 min at 50° C., initial denaturation for 10 min at 95° C., followed by 55 cycles of 15 seconds at 95° C. and 1 min at 65° C. […]

[1] = Therapeutic Regimen, intranasal

In the case of `Cc1cc(N2CCN(c3ccc(C(=O)N[C@H]4CCCC[C@@H]4O)cc3)CC2)ccc1OC[C@@H]1CO[C@@](Cn2cncn2)(c2ccc(F)cc2F)C1` [Compound (Ia), 4-(4-(4-(((3R,5R)-5-((1H-1,2,4-triazol-1-yl)methyl)-5-(2,4-difluorophenyl)tetrahydrofuran-3-yl)methoxy)-3-methylphenyl)piperazin-1-yl)-N-((1S,2S)-2-hydroxycyclohexyl) benzamide], the “CFU in lung, % Inhibition of response” value (Drug Conc 3.2 μg/mL intranasal) is reported as 19%, the “DNA in Lung” value (Drug Conc 3.2 μg/mL intranasal) is reported as 41.7 ± 29.0 pg/50 ng mouse DNA and the “DNA in Lung, % Inhibition of response” value (Drug Conc 3.2 μg/mL intranasal) is reported as 41%. For the same compound, the GM in Serum (Drug Conc 3.2 μg/mL intranasal) was 2.85 ± 2.76 COI, the “GM in serum, % Inhibition of response” value (Drug Conc 3.2 μg/mL intranasal) was 16% and the CFU in lung (Drug Conc 3.2 μg/mL intranasal) was 25.8 ± 20.8 /mg of lung. The “CFU in lung, % Inhibition of response” value (Drug Conc 16 μg/mL intranasal) was 24%, the “DNA in Lung” value (Drug Conc 16 μg/mL intranasal) was 56.1 ± 53.4 pg/50 ng mouse DNA and the “DNA in Lung, % Inhibition of response” value (Drug Conc 16 μg/mL intranasal) was 21%. The GM in Serum (Drug Conc 16 μg/mL intranasal) was 3.01 ± 2.14 COI, the “GM in serum, % Inhibition of response” value (Drug Conc 16 μg/mL intranasal) was 11% and the CFU in lung (Drug Conc 16 μg/mL intranasal) was 24.2 ± 15.8 /mg of lung. The “CFU in lung, % Inhibition of response” value (Drug Conc 80 μg/mL intranasal) was 71%, the “DNA in Lung” value (Drug Conc 80 μg/mL intranasal) was 4.10 ± 4.60 pg/50 ng mouse DNA and the “DNA in Lung, % Inhibition of response” value (Drug Conc 80 μg/mL intranasal) was 94%. For the same compound, the GM in Serum (Drug Conc 80 μg/mL intranasal) was 0.53 ± 0.38 COI, the “GM in serum, % Inhibition of response” value (Drug Conc 80 μg/mL intranasal) was 84% and the CFU in lung (Drug Conc 80 μg/mL intranasal) was 9.30 ± 5.20 /mg of lung. For the same compound, the “ID50 Values, A. fumigatus DNA in Lung” value [1] was 50 µg/mL (≈ 72.8 µM), the “ID50 Values, GM in serum” value [1] was 47 µg/mL (≈ 68.4 µM) and the “ID50 Values, Lung Fungal Load” value [1] was 51 µg/mL (≈ 74.3 µM).
With `CC[C@@H]([C@H](C)O)n1ncn(-c2ccc(N3CCN(c4ccc(OC[C@@H]5CO[C@@](Cn6cncn6)(c6ccc(F)cc6F)C5)cc4)CC3)cc2)c1=O` [Posaconazole, reference compound] the “ID50 Values, GM in serum” value [1] was 590 µg/mL (≈ 842 µM) and the “ID50 Values, Lung Fungal Load” value [1] was 390 µg/mL (≈ 557 µM).
